Reference: paper PMC9573696, “Experimental Examination of Solubility and Lipophilicity as Pharmaceutically Relevant Points of Novel Bioactive Hybrid Compounds” (Molecules, 2022)
Converted amounts (≈) assume the structure as drawn.

Legend:
C. utilis 84 = test: In vitro antifungal activity, microbroth dilution (MIC); format: cell-based; details: C. utilis 84
In short: (§1)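 MICs were determined by CLSI microbroth dilution, with fluconazole as the reference drug. Plates were incubated at 35 °C for 24 h and growth was scored visually against a sample-free reference culture. Each test was run in triplicate.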

C. glabrata 61L = test: as above; format: cell-based; details: C. glabrata 61L
In short: as §1

[1] = system: C. parapsilosis ATCC 22019; test: as above; format: cell-based; details: C. parapsilosis ATCC 22019
In short: as §1

[2] = Apparent thermodynamic functions of dissolution (van't Hoff); format: physicochemical; details: Thm = 302.98 K
From the text: The dissolution of the new hybrids was characterized based on apparent thermodynamic parameters obtained from temperature dependences of solubility of the studied compounds in the selected solvents (Figure 6). […] The van’t Hoff enthalpy of dissolution can be expressed as the inclination of a tangent to a solubility curve plotted as lnx vs. (1/T − 1/Thm) by Equation (6): (6) ΔHsolo=−R(∂lnx/∂(1/T−1/Thm))=−R⋅slope where R = 8.314 J⋅K^−1·mol^−1 is the universal gas constant. Thm = 302.98 K denotes the mean harmonic temperature, which was calculated by Equation (7):(7) Thm=n/∑i=1n1/Ti where n represented the number of experimental temperatures. The apparent standard Gibbs energy was evaluated by Equation (8):(8) ΔGsolo=−RThm×intersept
The apparent standard solution entropies were obtained from the well-known relationship:(9) ΔSsolo=ΔHsolo−ΔGsolo/Thm
The calculated apparent thermodynamic solubility functions of dissolution (Gibbs energy, enthalpy, and entropy) at standard temperature 298.15 K for hybrid compounds were collected in Table 4.

[3] = Partition in system 1-octanol/buffer pH 7.4, shake-flask method; format: physicochemical; details: for logP at 2 days / logD at 2 days: 1-octanol/buffer pH 7.4, pH 7.4, 1-octanol/buffer pH 7.4; for logP at 2 days: from concentrations in mole fraction; for logD at 2 days / logPo/b: from concentrations in mol∙L^−1; for sb × 10^6 (concentration in buffer) / so × 10^4 (concentration in 1-octanol) / xb × 10^7 (mole fraction in buffer) / xo × 10^5 (mole fraction in 1-octanol) / logPo/b: 1-octanol/buffer pH 7.4
Method: The partition coefficients of the new hybrid compounds in the model system 1-octanol/buffer pH 7.4 as a lipophilicity surrogate were determined experimentally. […] It is the lipophilic properties that allow the hybrids to move from the water phase to the less hydrophilic octanol phase, where the solute–solvent intermolecular interactions are more favourable. According to the results shown in Table 5, the order of changes in the partition coefficients logPo/b at T = 298.15 K, depending on the substituent nature, is expressed as the inequality: Cl- (1.65) < F- (2.40) < CH3- (2.50). Compounds I and II are the most lipophilic in the series of the studied substances, whereas the introduction of a chlorine atom considerably lowers the partition coefficient (~0.8 log units). This fact agrees with the common concept that lipophilic groups are usually hydrocarbon or fluorine-containing radicals. […] For drugs with such partition coefficients, there is a good balance between the solubility and permeability through passive diffusion and minimum metabolism due to the low binding capacity with enzymes.
The octanol/buffer pH 7.4 partition coefficient logPO/B is measured in a static mode using the shake-flask method. The procedure has been presented as standard in the Organization for Economic Cooperation and Development (OECD) guidelines for testing chemicals. The equipment described above was also used for the determination of the 1-octanol/water partition coefficients. […] The correctness of the obtained value of each compound was verified by checking the mass balance of the starting amount of the compound and the total amount of the compound partitioned between the two phases.
To aim evaluated transfer (partition) thermodynamic functions, the 1-octanol/buffer partition coefficients P^* o/b as the ratio of equilibrium concentrations in the organic (xo) and aqueous phases (xb) expressed in mole fractions were calculated: P* o/b = xo/xb(12)

[4] = Thermodynamic functions of transfer 1-octanol/buffer pH 7.4; format: physicochemical; details: 298.15 K
Method: The temperature variation of the partition coefficient provides enthalpic and entropic contributions to the free energy of transfer. The thermodynamic transfer functions for hybrids I–III in the 1-octanol/buffer pH 7.4 system were calculated by Equations (12)–(16) and are summarized in Table 6. The standard Gibbs energy values for all the compounds are negative. Therefore, the transfer from the aqueous medium to the organic phase within the studied temperature range is thermodynamically favourable and spontaneous. The standard transfer enthalpies of all the studied compounds are positive, which means the process is endothermic. Energy is consumed during the transfer to overcome the hydrophobic effects in water (destruction of the molecule solvate shell structure), destruction of the solvent–solute interactions in the aqueous medium and creation of a cavity in the organic phase where the solute molecules can enter.
The standard change in Gibbs free energy of transfer (∆trG^o) from the buffer to the organic phase was calculated by Equation (14):∆trG^o = −RTlnP*o/b(14)
The standard change entropy of transfer (∆trS^o) is determined as follows:∆trS^o = (∆trH^o − ∆trG^o)/T(15)

- MIC (C. utilis 84; Williopsis jadinii, 35 °C, 24 h, read-out: MIC): 2 µg/mL (≈ 3.03 µM)
- MIC relative to the reference value (fluconazole) (C. glabrata 61L): four times less
- MIC (C. glabrata 61L; Nakaseomyces glabratus, 35 °C, 24 h, read-out: MIC): 2 µg/mL (≈ 3.03 µM)
- MIC ([1]; Lodderomyces parapsilosis, ATCC22019, 35 °C, 24 h, read-out: MIC): 0.25 µg/mL (≈ 0.379 µM)
- TΔSsolo ([2]; 1-Octanol): -0.22 kcal/mol
- ΔGsolo ([2]; 1-Octanol): 3.68 ± 0.072 kcal/mol
- ΔHsolo ([2]; 1-Octanol): 3.47 ± 0.024 kcal/mol
- ΔSsolo ([2]; 1-Octanol): −3.1 ± 0.2 J·mol^−1·K^−1
- TΔSsolo ([2]; Buffer pH 2.0): -4.59 kcal/mol
- ΔGsolo ([2]; Buffer pH 2.0): 6.69 ± 0.096 kcal/mol
- ΔHsolo ([2]; Buffer pH 2.0): 2.1 ± 0.024 kcal/mol
- ΔSsolo ([2]; Buffer pH 2.0): −64.4 ± 3.8 J·mol^−1·K^−1
- TΔSsolo ([2]; Buffer pH 7.4): -2.87 kcal/mol
- ΔGsolo ([2]; Buffer pH 7.4): 8.05 ± 0.17 kcal/mol
- ΔHsolo ([2]; Buffer pH 7.4): 5.19 ± 0.048 kcal/mol
- ΔSsolo ([2]; Buffer pH 7.4): −40.3 ± 2.3 J·mol^−1·K^−1
- logP at 2 days ([3]; 293.15 K): 2.56
- logD at 2 days ([3]; 293.15 K): 1.62
- logP at 2 days ([3]; 298.15 K): 2.59
- logP at 2 days ([3]; 303.15 K): 2.61
- logP at 2 days ([3]; 308.15 K): 2.64
- logD at 2 days ([3]; 308.15 K): 1.7
- logP at 2 days ([3]; 313.15 K): 2.69
- logD at 2 days ([3]; 313.15 K): 1.73
- sb × 10^6 (concentration in buffer) ([3]; 293.15 K): 9.29 mol∙L^−1 (printed as sb × 10^6
- so × 10^4 (concentration in 1-octanol) ([3]; 293.15 K): 3.89 mol∙L^−1 (printed as so × 10^4
- xb × 10^7 (mole fraction in buffer) ([3]; 293.15 K): 1.69 mole fraction (printed as xb ×
- xo × 10^5 (mole fraction in 1-octanol) ([3]; 293.15 K): 6.14 mole fraction (printed as xo ×
- sb × 10^6 (concentration in buffer) ([3]; 298.15 K): 8.77 mol∙L^−1 (printed as sb × 10^6
- so × 10^4 (concentration in 1-octanol) ([3]; 298.15 K): 3.90 mol∙L^−1 (printed as so × 10^4
- xb × 10^7 (mole fraction in buffer) ([3]; 298.15 K): 1.60 mole fraction (printed as xb ×
- xo × 10^5 (mole fraction in 1-octanol) ([3]; 298.15 K): 6.17 mole fraction (printed as xo ×
- logPo/b ([3]; 298.15 K): 1.65
- sb × 10^6 (concentration in buffer) ([3]; 303.15 K): 8.29 mol∙L^−1 (printed as sb × 10^6
- so × 10^4 (concentration in 1-octanol) ([3]; 303.15 K): 3.91 mol∙L^−1 (printed as so × 10^4
- xb × 10^7 (mole fraction in buffer) ([3]; 303.15 K): 1.51 mole fraction (printed as xb ×
- xo × 10^5 (mole fraction in 1-octanol) ([3]; 303.15 K): 6.21 mole fraction (printed as xo ×
- logPo/b ([3]; 303.15 K): 1.67
- sb × 10^6 (concentration in buffer) ([3]; 308.15 K): 7.80 mol∙L^−1 (printed as sb × 10^6
- so × 10^4 (concentration in 1-octanol) ([3]; 308.15 K): 3.91 mol∙L^−1 (printed as so × 10^4
- xb × 10^7 (mole fraction in buffer) ([3]; 308.15 K): 1.42 mole fraction (printed as xb ×
- xo × 10^5 (mole fraction in 1-octanol) ([3]; 308.15 K): 6.24 mole fraction (printed as xo ×
- sb × 10^6 (concentration in buffer) ([3]; 313.15 K): 7.36 mol∙L^−1 (printed as sb × 10^6
- so × 10^4 (concentration in 1-octanol) ([3]; 313.15 K): 3.92 mol∙L^−1 (printed as so × 10^4
- xb × 10^7 (mole fraction in buffer) ([3]; 313.15 K): 1.35 mole fraction (printed as xb ×
- xo × 10^5 (mole fraction in 1-octanol) ([3]; 313.15 K): 6.28 mole fraction (printed as xo ×
- T∆trS^o [4]: 5.81 ± 0.239 kcal/mol
- ∆trG^o [4]: -3.54 ± 0.048 kcal/mol
- ∆trH^o [4]: 2.27 ± 0.024 kcal/mol
- ∆trS^o [4]: 81.5 ± 1.5 J·mol^−1·K^−1
SMILES: O=c1c2sc(=S)n(-c3ccc(Cl)cc3)c2ncn1CCCN1CCN(CC(O)(Cn2cncn2)c2ccc(F)cc2F)CC1 (stereo not shown) [III, 6-[3-[4-[2-(2,4-difluorophenyl)-2-hydroxy-3-(1H-1,2,4-triazol-1-yl)propyl]-1-piperazinyl]propyl]-2,3-dihydro-3-(4-chlorophenyl)-2-thioxo-thiazolo[4,5-d]pyrimidin-7(6H)-one]
- activity relative to fluconazole (C. utilis 84): comparable
- advantage over fluconazole ([1]; MIC ratio): 8 fold
